The subject of one series is MCF7. Put plainly: cells. The following applies: Homo sapiens, MCF7, 72 h.
Series [1] deals with Estrogen receptor beta (Homo sapiens) (UniProt Q92731). Put plainly: Binding affinity to ERbeta (unknown origin) incubated for 2 hrs by fluorescence tracer based competitive fluorometric binding assay relative to estradiol.
In series [2] the target is T1, Estrogen receptor (Homo sapiens) (UniProt P03372).
T1 sequence (whole entry): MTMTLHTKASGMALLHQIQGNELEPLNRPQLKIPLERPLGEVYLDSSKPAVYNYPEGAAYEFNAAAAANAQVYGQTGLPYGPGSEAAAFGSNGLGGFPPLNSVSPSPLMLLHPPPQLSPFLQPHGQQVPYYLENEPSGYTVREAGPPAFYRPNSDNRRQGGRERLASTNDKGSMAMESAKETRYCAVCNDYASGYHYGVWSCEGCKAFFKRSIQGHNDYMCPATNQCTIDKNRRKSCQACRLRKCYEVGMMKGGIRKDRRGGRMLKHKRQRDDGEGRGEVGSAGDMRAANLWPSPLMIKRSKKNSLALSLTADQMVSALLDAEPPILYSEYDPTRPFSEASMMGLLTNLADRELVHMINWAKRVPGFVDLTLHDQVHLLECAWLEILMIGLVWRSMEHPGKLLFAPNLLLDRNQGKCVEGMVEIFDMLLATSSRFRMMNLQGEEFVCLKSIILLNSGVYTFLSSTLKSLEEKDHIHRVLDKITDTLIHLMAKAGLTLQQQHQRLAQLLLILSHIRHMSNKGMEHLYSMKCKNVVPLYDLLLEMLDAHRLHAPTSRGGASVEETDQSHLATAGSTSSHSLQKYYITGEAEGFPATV
Put plainly: Induction of ERalpha protein degradation in human MCF7 cells assessed as ERalpha protein level at 10 uM incubated for 20 hrs by Western blot analysis relative to control. Format: cell-based. A general note: In western blotting, separated proteins are transferred to a membrane and probed.

For series [3], the target named is T1, Estrogen receptor (Homo sapiens). Put plainly: Binding affinity to purified human ERalpha LBD incubated for 2 hrs by fluorescence tracer based competitive fluorometric binding assay relative to estradiol.
Series [4] shares this target. Put plainly: Induction of ERalpha protein degradation in human MCF7 cells at 5 uM incubated for 20 hrs by Western blot analysis relative to control. Format: cell-based.
Series [5] is described as follows: Volume of distribution at steady state in Sprague-Dawley rat at 3 mg/kg, iv by LC-MS/MS analysis. The series is classed as ADME, organism-based. The conditions noted are these: in vivo, read-out: Vdss.
A short description of series [6]: Cmax in Sprague-Dawley rat at 3 mg/kg, iv by LC-MS/MS analysis. Format: ADME, organism-based. More on the design: dose 3 mg/kg, route intravenous. The conditions noted are these: in vivo.
Series [7] can be described thus: Half life in Sprague-Dawley rat at 3 mg/kg, iv by LC-MS/MS analysis. The series is classed as ADME, organism-based. The conditions noted are these: in vivo.
Series [8] is described as follows: Clearance in Sprague-Dawley rat at 3 mg/kg, iv by LC-MS/MS analysis. The series is classed as ADME, organism-based. The following applies: in vivo.
Series [9] in a line: AUC in Sprague-Dawley rat at 10 mg/kg, po by LC-MS/MS analysis. Format: ADME, organism-based. The conditions noted are these: in vivo.
Series [10] can be described thus: Cmax in Sprague-Dawley rat at 10 mg/kg, po by LC-MS/MS analysis. The conditions noted are these: in vivo. Format: ADME, organism-based. Also noted: dose 10 mg/kg, route oral.
Series [11] has as its target T1, Estrogen receptor (Homo sapiens). Put plainly: Induction of ERalpha protein degradation in human MCF7 cells at 0.5 uM incubated for 20 hrs by Western blot analysis. The series is classed as cell-based.
Series [12] is described as follows: AUC in Sprague-Dawley rat at 3 mg/kg, iv by LC-MS/MS analysis. The series is classed as ADME, organism-based. The following applies: in vivo.
Series [13] in a line: Half life in Sprague-Dawley rat at 10 mg/kg, po by LC-MS/MS analysis. Format: ADME, organism-based. The following applies: in vivo.
Series [14] addresses T1, Estrogen receptor (Homo sapiens). Put plainly: Induction of ERalpha protein degradation in human MCF7 cells at 1 uM incubated for 20 hrs by Western blot analysis relative to control. Format: cell-based.
Series [15] can be described thus: Oral bioavailability in Sprague-Dawley rat at 10 mg/kg by LC-MS/MS analysis. Format: ADME, organism-based. The conditions noted are these: in vivo.

Activity calls are given as the source filed them. The rule behind the calls is not given here.

Sequence of Estrogen receptor beta (Homo sapiens) (Q92731 whole entry): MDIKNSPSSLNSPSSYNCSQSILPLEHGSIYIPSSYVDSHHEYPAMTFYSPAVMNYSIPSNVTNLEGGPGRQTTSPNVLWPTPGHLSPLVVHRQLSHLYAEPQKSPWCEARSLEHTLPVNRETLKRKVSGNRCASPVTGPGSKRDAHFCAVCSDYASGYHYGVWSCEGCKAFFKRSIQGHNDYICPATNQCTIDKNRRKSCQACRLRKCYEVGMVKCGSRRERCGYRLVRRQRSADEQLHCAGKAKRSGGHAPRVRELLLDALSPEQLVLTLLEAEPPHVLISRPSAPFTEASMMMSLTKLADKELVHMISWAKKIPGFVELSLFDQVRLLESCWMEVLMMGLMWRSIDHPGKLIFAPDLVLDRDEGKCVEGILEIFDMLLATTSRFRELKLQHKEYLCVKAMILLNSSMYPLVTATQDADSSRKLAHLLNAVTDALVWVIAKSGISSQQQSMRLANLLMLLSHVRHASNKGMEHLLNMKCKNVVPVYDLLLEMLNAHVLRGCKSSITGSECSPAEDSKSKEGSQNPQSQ
Description for MCF7: Antiproliferative activity against human MCF7 cells incubated for 72 hrs by MTT assay

As to `CCN(c1ccc(OCCN2CCCCC2)cc1)S(=O)(=O)[C@H]1C[C@H]2O[C@@H]1C(c1ccc(O)cc1)=C2c1ccc(O)cc1` (relative stereo), half-maximal inhibition in the series with MCF7 (IC50) was put at 5.4 µM. Also, the results for the RBA in [1] and in series [3] were 0.25% and 0.58%, respectively. Moreover, the Activity in [2] turned out to be 89%.
For `CCN(c1ccccc1)S(=O)(=O)[C@H]1C[C@H]2O[C@@H]1C(c1ccc(OCC(O)CO)cc1)=C2c1ccc(O)cc1` (relative stereo), in the series with MCF7, the concentration for half-maximal inhibition (IC50) (as a rule, the concentration that gives 50% inhibition) was found to be 33.6 µM. The RBA in [1] came out at 0.28%; in series [3] it was 0.26%. In addition, the Activity in series [2] is 117%.
In [4], `COc1ccc(N(CC(F)(F)F)S(=O)(=O)[C@H]2C[C@H]3O[C@@H]2C(c2ccc(O)cc2)=C3c2ccc(O)cc2)cc1` displayed an Activity of 100%.
With `COc1ccc(N(CC(F)(F)F)S(=O)(=O)[C@H]2C[C@H]3O[C@@H]2C(c2ccc(OCCCCCCCCCCC(=O)O)cc2)=C3c2ccc(O)cc2)cc1` (relative stereo), the IC50 with MCF7 stood at 14.3 µM. In addition, the RBA amounted to 0.7% in series [1] and 0.06% in series [3]. Besides, the Activity in [2] is 83%.
Regarding `COc1ccc(N(CC(F)(F)F)S(=O)(=O)[C@H]2C[C@H]3O[C@@H]2C(c2ccc(OCCN4CCCC4)cc2)=C3c2ccc(O)cc2)cc1` (relative stereo), in series [5], the Vd was 9.55 L/kg. Besides, the Cmax (in general, the highest concentration seen after dosing) in [6] came out at 1000 ng/mL; in [10], 50 ng/mL. In the series with MCF7, the half-maximal inhibitory concentration (IC50) came out at 6.1 µM. In addition, the half-life (usually the time in which the quantity being followed falls by half) is 6.2 h in [7] and 3.7 h in series [13]. The clearance (commonly the rate of elimination divided by the concentration) in series [8] was 46 mL/min/kg. The RBA came to 1.81% in series [1] and 2.12% in series [3]. Further, the area under the curve (AUC) (in general, concentration integrated over time) in series [9] came to 330 ng·h/mL; in [12], 1080 ng·h/mL. Moreover, the Activity in series [2] is 1%; in [14], 100%. Besides, the result in series [11] was Active. The bioavailability (as a rule, the share of a dose that reaches the circulation, judged against a reference dose that is usually intravenous) in [15] turned out to be 9.2%.
`O=S(=O)([C@H]1C[C@H]2O[C@@H]1C(c1ccc(OCC(O)CO)cc1)=C2c1ccc(O)cc1)N(CC(F)(F)F)c1ccc(Cl)cc1` (relative stereo): inhibition in the series with MCF7 was half-maximal at 16.8 µM (IC50). In addition, the values for the RBA in series [1] and in [3] were less than 0.01% and 1.62%, respectively. Besides, the Activity in series [2] turned out to be 38%.
For `CCN(c1ccc(OCCCCCCC(=O)O)cc1)S(=O)(=O)[C@H]1C[C@H]2O[C@@H]1C(c1ccc(O)cc1)=C2c1ccc(O)cc1` (relative stereo) the same measures were more than 50 µM, 0.41%, 1.22% and 92%.
`COc1ccc(N(CC(F)(F)F)S(=O)(=O)[C@H]2C[C@H]3O[C@@H]2C(c2ccc(OCCCCCCCC(=O)O)cc2)=C3c2ccc(O)cc2)cc1` (relative stereo): half-maximal inhibition in the series on MCF7 (IC50) required 40.3 µM. Further, the RBA is less than 0.01% in series [1] and 0.07% in series [3]. Further, in [2], the Activity was determined as 42%.
For `CN(c1ccccc1)S(=O)(=O)[C@H]1C[C@H]2O[C@@H]1C(c1ccc(OCCN3CCCCC3)cc1)=C2c1ccc(O)cc1` (relative stereo) the same measures were 15.2 µM, 0.79%, 0.95% and 98%.
In the case of `CCN(c1ccccc1)S(=O)(=O)[C@H]1C[C@H]2O[C@@H]1C(c1ccc(OCCN3CCCCC3)cc1)=C2c1ccc(O)cc1` (relative stereo), in the series with MCF7, the IC50 worked out at 12.9 µM. Moreover, the RBA in series [1] was 0.81%; in series [3], 2.51%. The Activity in series [2] was 95%.
Consider `CCN(c1ccccc1)S(=O)(=O)[C@H]1C[C@H]2O[C@@H]1C(c1ccc(OCCCCCCCCCCC(=O)O)cc1)=C2c1ccc(O)cc1` (relative stereo), for which 10.3 µM corresponded to half-maximal inhibition in the series with MCF7 (IC50). The RBA in series [1] was 0.13%; in series [3], 0.93%. Moreover, the Activity in [2] turned out to be 51%.
For `CCN(c1ccccc1)S(=O)(=O)[C@H]1C[C@H]2O[C@@H]1C(c1ccc(OCCCCCCCC(=O)O)cc1)=C2c1ccc(O)cc1` (relative stereo) the same measures were 27.4 µM, 0.4%, 1.2% and 79%.
The corresponding values for `CCN(c1ccc(OCCCCCCCC(=O)O)cc1)S(=O)(=O)[C@H]1C[C@H]2O[C@@H]1C(c1ccc(O)cc1)=C2c1ccc(O)cc1` (relative stereo) are 24.9 µM, 0.42%, 3.21% and 78%.
In the series with MCF7, `CC/C(=C(\c1ccc(O)cc1)c1ccc(OCCN(C)C)cc1)c1ccccc1` [AFIMOXIFENE] returned an IC50 of 10.1 µM.
Take `COc1ccc(N(CC(F)(F)F)S(=O)(=O)[C@H]2C[C@H]3O[C@@H]2C(c2ccc(OCCCCCCC(=O)O)cc2)=C3c2ccc(O)cc2)cc1` (relative stereo): the half-maximal inhibitory concentration (IC50) with MCF7 came to 15.9 µM. For the same compound, the RBA stood at 0.13% in series [1] and 1.82% in series [3]. Moreover, the Activity in series [2] came out at 32%.
Take `CCN(c1ccc(OCCCCCCCCCCC(=O)O)cc1)S(=O)(=O)[C@H]1C[C@H]2O[C@@H]1C(c1ccc(O)cc1)=C2c1ccc(O)cc1` (relative stereo): in the series on MCF7, 18.4 µM corresponded to half-maximal inhibition (IC50). The results for the RBA in [1] and in series [3] were less than 0.01% and 0.57%, respectively. The Activity in series [2] came to 29%.
As for `CCN(c1ccc(OCC(O)CO)cc1)S(=O)(=O)[C@H]1C[C@H]2O[C@@H]1C(c1ccc(O)cc1)=C2c1ccc(O)cc1` (relative stereo), half-maximal inhibition in the series on MCF7 (IC50) was put at 32.3 µM. For the same compound, the values for the RBA in series [1] and in [3] were 0.53% and 0.46%, respectively. Besides, the Activity in series [2] came to 63%.

The values above are taken from ChEMBL document CHEMBL4346693, “Exploring the PROTAC degron candidates: OBHSA with different side chains as novel selective estrogen receptor degraders (SERDs)” (Eur J Med Chem, 2019).
